From article PMC12320299 (Chemical Science, 2025)

Tested on: SW480 cancer cells
Experiment: Proteome profiling of compound-treated SW480 cancer cells (24 h, approx. IC50, CYT and NE fractions)
Assay type: cell-based, human
Experimental: To gain insight into potential modes of action and derive structure–activity relationships on a molecular level, proteomic profiling experiments were carried out based on label-free quantification (LFQ) by nano-liquid chromatography tandem mass spectrometry (nLC-MS/MS). […] Six replicates were used per condition. The perturbations were evaluated at subcellular resolution by fractionating cells into cytoplasmic (CYT) and nuclear (NE) protein fractions. Those have been separately proteolytically digested and analysed (Fig. 3A). The perturbations with the 3-Et-NQ and 3-Morph-NQ complexes were performed against their respective solvent-treated controls (CON), yielding a total of 72 samples. […] Statistical significance of individual protein regulations was calculated by multiple testing-corrected P-values based on 5% false discovery rate (FDR = 0.05 and S0 = 0.1).
The position of each group represents the summed fold-changes of the individual proteins in the group according to the subcellular space, i.e., CYT and NE fractions, while the size represents the number of proteins in each group. […]
Proteome profiling of compound-treated SW480 cancer cells […]
cells per well and left to adhere in complete cell culture medium. After 24 h, the medium was exchanged with fresh complete medium (DMSO mock control) or fresh medium containing […]
solution in DMSO, respectively) and incubated for another 24 h. Each condition was carried out in hexuplicates. The cells were processed according to a nucleocytoplasmic fractionation protocol as previously described.3 All steps were performed on ice. The medium was removed, and the cells were washed twice with 1×PBS (phosphate buffered saline, 3 mL). Then, PBS was thoroughly removed. Isotonic lysis buffer (10 mM HEPES, 10 mM NaCl, 3.5 mM MgCl2, 1 mM EGTA, 0.25 M Sucrose, 0.5% Triton X-100) containing protease inhibitors (1% PMSF, Sigma, and 1% protease and phosphatase inhibitor cocktail, Roche) was added to the flasks, the cells were scraped off and transferred into labelled 15 mL Falcon tubes. The cellular membrane was ruptured using shear stress by pressing the cell suspension through a syringe 9–12 times. Membrane rupture with intact nuclei was monitored under a microscope. After centrifugation (960 g, 5 min), the supernatant containing the cytoplasmic (CYT) proteins was transferred into new tubes containing ice-cold ethanol (1 : 5, HPLC grade) and precipitated […]
overnight at –20 °C. The pellet containing the nuclei was incubated with a hypertonic solution (10 mM Tris-HCl, 1 mM EDTA and 0.5 M NaCl) and subsequently diluted 1:10 with NP-40 buffer (10 mm Tris-HCl, 1 mm EDTA and 0.5% Triton X-100) containing protease inhibitors (1% PMSF, Sigma, and 1% protease and phosphatase inhibitor cocktail, Roche). After centrifugation (960 g, 5 min), the soluble nuclear (NE) proteins were also transferred into new tubes containing ice-cold ethanol (1 : 5, HPLC grade) and precipitated overnight at –20 °C.
The precipitated proteins were finally pelleted by centrifugation (5000 g, 30 min, 4 °C), the solution was decanted and the pellet dried under vacuum.

[1] = cytoplasmic fraction, FDR = 0.05, S0 = 0.1

CCC1=C2[O][Ru][O]C2(n2cccn2)c2ccccc2C1=O.Cc1ccc(C(C)C)cc1 (stereo not drawn) [Compound 1a, [(3-ethyl-4-oxo-(pyrazolyl)-dihydronaphthalene)(cymene)ruthenium(II)]]
N° proteins down-regulated, NE: 211 | N° proteins upregulated, NE: 178 | N° significantly regulated proteins, Total (CYT and NE): 810 | TP53 regulation in cytoplasmic fraction (CYT fraction): strongest down-regulated protein | N° proteins down-regulated, CYT [1]: 298 | N° proteins upregulated, CYT [1]: 123
